US20240228458A1, “PYRIMIDINE DERIVATIVE HAVING PROTEIN KINASE INHIBITORY ACTIVITY, AND THERAPEUTIC PHARMACEUTICAL COMPOSITION COMPRISING SAME” (THERAPEX CO., LTD., priority 2021, published 2024)

Key:
Assay type in all cases: cell-based
[1] = system: Ba/F3 cells expressing del19/T790M (EGFR-DT); experiment: Growth inhibition (GI50) of Ba/F3 cells expressing del19/T790M (EGFR-DT), Celltiter glo; conditions: Mus musculus, BaF3, 72 h
Method: (§1) In this experimental example, a determination was made as to whether the compounds prepared in Examples 1-283 have the ability to inhibit the growth of Ba/F3 cells expressing EGFR-wt, del19/T790M/C797S (EGFR-DTC), L858R/T790M/C797S (EGFR-LTC), del19/T790M (EGFR-DT), and L858R/T790M (EGFR-LT) variants.
(§2) The parental Ba/F3 cell line is a population of cells that are not introduced with EGFR variants. Specifically, 100 μl of a cell line expressing each variant was plated in a 96-well plate at a density of 100,000 cells/ml. 10-point, 4-fold serial dilutions of each compound were prepared, starting at 2 mM. After 4 h, 0.5 μl of the compound (0.5% DMSO) was added, followed by incubation at 37° C. and 5% CO2 for 72 h. After incubation, the number of viable cells was measured using a Celltiter glo assay kit (Promega) and the GI50 of the compound was determined. The term “GI50” refers to the molar concentration (μM) of the compound required for 50% growth inhibition of cells.

[2] = system: Ba/F3 cells expressing L858R/T790M (EGFR-LT); experiment: Growth inhibition (GI50) of Ba/F3 cells expressing L858R/T790M (EGFR-LT), Celltiter glo; conditions: Mus musculus, BaF3, 72 h
Method: as §1, §2

[3] = system: Ba/F3 cells expressing EGFR-wt; experiment: Growth inhibition (GI50) of Ba/F3 cells expressing EGFR-wt, Celltiter glo; conditions: Mus musculus, BaF3, 72 h
Summary of the method: (§3)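 Viability read by CellTiter-Glo after 72 h compound exposure (37 °C, 5% CO2) of variant-expressing Ba/F3 cells plated at 100,000 cells/ml. Dosing 4 h post-seeding; 10-pt 4-fold series from 2 mM stock; 0.5% DMSO. GI50 = molar concentration (μM) giving half-maximal growth inhibition.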

[4] = system: Ba/F3 cells expressing L858R/T790M/C797S (EGFR-LTC); experiment: Growth inhibition (GI50) of Ba/F3 cells expressing L858R/T790M/C797S (EGFR-LTC), Celltiter glo; conditions: Mus musculus, BaF3, 72 h
Summary of the method: as §3

[5] = system: parental Ba/F3 cell line; experiment: Growth inhibition (GI50) of the parental Ba/F3 cell line (not introduced with EGFR variants), Celltiter glo; conditions: Mus musculus, BaF3, 72 h, parental Ba/F3 cells
Summary of the method: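 Parental Ba/F3 cells (100,000 cells/ml) were treated with 10-point, 4-fold compound dilutions (0.5% DMSO; top stock 2 mM) for 72 h at 37 °C, 5% CO2. Viability was read by CellTiter-Glo; GI50 is the concentration (μM) giving 50% growth inhibition.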

[6] = system: Ba/F3 cells expressing del19/T790M/C797S (EGFR-DTC); experiment: Growth inhibition (GI50) of Ba/F3 cells expressing del19/T790M/C797S (EGFR-DTC), Celltiter glo; conditions: Mus musculus, BaF3, 72 h
Summary of the method: as §3

Row | SMILES | GI50 [1] | GI50 [2] | GI50 [3] | GI50 [4] | GI50 [5] | GI50 [6]
1 | COc1nc(N2CCS(=O)(=O)CC2)ccc1Nc1ncc(Cl)c(Nc2ccccc2NS(C)(=O)=O)n1 [Example 6] | 0.5 to 2 µM | 0.5 to 2 µM | 0.5 to 2 µM | 0.5 to 2 µM | > 10 µM | 0.5 to 2 µM
2 | COc1nc(N2CCC(N3CCN(C)CC3)CC2)c(C)cc1Nc1ncc(Cl)c(Nc2ccc(F)cc2NS(C)(=O)=O)n1 [Example 15, N-(2-((5-chloro-2-((2-methoxy-5-methyl-6-(4-(4-methylpiperazin-1-yl)piperidin-1-yl)pyridin-3-yl)amino)pyrimidin-4-yl)amino)-5-fluorophenyl)methanesulfonamide] | 0.001 to 0.025 µM | 0.1 to 0.5 µM | 0.5 to 2 µM | 0.1 to 0.5 µM | 0.5 to 2 µM | 0.1 to 0.5 µM
3 | COc1nc(N2CCN(CCO)CC2)ccc1Nc1ncc(Cl)c(Nc2ccc(F)cc2NS(C)(=O)=O)n1 [Example 18] | 0.5 to 2 µM | 0.5 to 2 µM | 0.025 to 0.1 µM | 0.5 to 2 µM | 0.1 to 0.5 µM | 0.5 to 2 µM
4 | COc1nc(N2CCN(C(C)=O)CC2)ccc1Nc1ncc(Cl)c(Nc2ccc(F)cc2NS(C)(=O)=O)n1 [Example 19, N-(2-((2-((6-(4-acetylpiperazin-1-yl)-2-methoxypyridin-3-yl)amino)-5-chloropyrimidin-4-yl)amino)-5-fluorophenyl)methanesulfonamide] | 0.5 to 2 µM | 0.5 to 2 µM | 0.5 to 2 µM | 0.5 to 2 µM | 2 to 10 µM | 0.5 to 2 µM
5 | COc1nc(N2C[C@@H](C)N(C)[C@@H](C)C2)ccc1Nc1ncc(Cl)c(Nc2ccc(F)cc2NS(C)(=O)=O)n1 [Example 20, N-(2-((5-chloro-2-((2-methoxy-6-((3S,5R)-3,4,5-trimethylpiperazin-1-yl)pyridin-3-yl)amino)pyrimidin-4-yl)amino)-5-fluorophenyl)methanesulfonamide] | 0.5 to 2 µM | 0.5 to 2 µM | 2 to 10 µM | 0.5 to 2 µM | 2 to 10 µM | 0.5 to 2 µM
6 | COc1nc(N2CCC(O)CC2)ccc1Nc1ncc(Cl)c(Nc2ccc(F)cc2NS(C)(=O)=O)n1 [Example 21, N-(2-((5-chloro-((6-(4-hydroxypiperidin-1-yl)-2-methoxypyridin-3-yl)amino)pyrimidin-4-yl)amino)-5-fluorophenyl)methanesulfonamide] | 0.5 to 2 µM | 2 to 10 µM | 2 to 10 µM | 0.5 to 2 µM | > 10 µM | 0.5 to 2 µM
7 | COc1nc(N2CCN(C3COC3)CC2)ccc1Nc1ncc(Cl)c(Nc2ccc(F)cc2NS(C)(=O)=O)n1 [Example 22, N-(2-((5-chloro-2-((2-methoxy-6-(4-(oxetan-3-yl)piperazin-1-yl)pyridin-3-yl)amino)pyrimidin-4-yl)amino)-5-fluorophenyl)methanesulfonamide] | 0.025 to 0.1 µM | 2 to 10 µM | 2 to 10 µM | 0.5 to 2 µM | 0.5 to 2 µM | 0.5 to 2 µM
8 | COc1nc(N2CCC(N(C)C)C2)ccc1Nc1ncc(Cl)c(Nc2ccc(F)cc2NS(C)(=O)=O)n1 (centres unmarked) [Example 23, N-(2-((5-chloro-2-((6-(3-(dimethylamino)pyrrolidin-1-yl)-2-methoxypyridin-3-yl)amino)pyrimidin-4-yl)amino)-5-fluorophenyl)methanesulfonamide] | 0.1 to 0.5 µM | 0.5 to 2 µM | 0.1 to 0.5 µM | 0.1 to 0.5 µM | 0.1 to 0.5 µM | 0.1 to 0.5 µM
9 | COc1cc(N2CCC(N3CCCN(C)CC3)CC2)c(C)cc1Nc1ncc(Br)c(Nc2ccc(F)cc2NS(C)(=O)=O)n1 [Example 38, N-(2-((5-bromo-2-((2-methoxy-5-methyl-4-(4-(4-methyl-1,4-diazepan-1-yl)piperidin-1-yl)phenyl)amino)pyrimidin-4-yl)amino)-5-fluorophenyl)methanesulfonamide] | 0.025 to 0.1 µM | 0.1 to 0.5 µM | 0.1 to 0.5 µM | 0.025 to 0.1 µM | 0.5 to 2 µM | 0.025 to 0.1 µM
10 | COc1cc(N2CCC(N3CCCC(N(C)C)C3)CC2)c(C)cc1Nc1ncc(Br)c(Nc2ccc(F)cc2NS(C)(=O)=O)n1 (centres unmarked) [Example 39, N-(2-((5-bromo-2-((4-(3-(dimethylamino)-[1,4′-bipiperidin]-1′-yl)-2-methoxy-5-methylphenyl)amino)pyrimidin-4-yl)amino)-5-fluorophenyl)methanesulfonamide] | 0.1 to 0.5 µM | 0.025 to 0.1 µM | 0.1 to 0.5 µM | 0.001 to 0.025 µM | 0.5 to 2 µM | 0.001 to 0.025 µM
11 | Cc1cc(Nc2ncc(Br)c(Nc3ccc(F)cc3NS(C)(=O)=O)n2)c(Cl)cc1N1CCC(N2CCCN(C)CC2)CC1 [Example 44, N-(2-((5-bromo-2-((2-chloro-5-methyl-4-(4-(4-methyl-1,4-diazepan-1-yl)piperidin-1-yl)phenyl)amino)pyrimidin-4-yl)amino)-5-fluorophenyl)methanesulfonamide] | 0.025 to 0.1 µM | 0.1 to 0.5 µM | 0.5 to 2 µM | 0.025 to 0.1 µM | 0.5 to 2 µM | 0.025 to 0.1 µM
12 | Cc1cc(Nc2ncc(Br)c(Nc3ccc(F)cc3NS(C)(=O)=O)n2)c(Cl)cc1N1CCC(N2CCCC(N(C)C)C2)CC1 (centres unmarked) [Example 45] | 0.025 to 0.1 µM | 0.1 to 0.5 µM | 0.5 to 2 µM | 0.025 to 0.1 µM | 0.5 to 2 µM | 0.025 to 0.1 µM
13 | CNS(=O)(=O)c1ccccc1Nc1nc(Nc2ccc(N3CCN(CCO)CC3)nc2OC)ncc1Cl [Example 56, 2-((5-chloro-2-((6-(4-(2-hydroxyethyl)piperazin-1-yl)-2-methoxypyridin-3-yl)amino)pyrimidin-4-yl)amino)-N-methylbenzenesulfonamide] | 0.1 to 0.5 µM | 0.5 to 2 µM | 0.5 to 2 µM | 0.5 to 2 µM | 2 to 10 µM | 0.5 to 2 µM
14 | CNS(=O)(=O)c1ccccc1Nc1nc(Nc2ccc(N3CCC(N(C)C)C3)nc2OC)ncc1Cl (centres unmarked) [Example 57, 2-((5-chloro-2-((6-(3-(dimethylamino)pyrrolidin-1-yl)-2-methoxypyridin-3-yl)amino)pyrimidin-4-yl)amino)-N-methylbenzenesulfonamide] | 0.1 to 0.5 µM | 0.5 to 2 µM | 0.5 to 2 µM | 0.5 to 2 µM | 0.5 to 2 µM | 0.5 to 2 µM
15 | CNS(=O)(=O)c1ccccc1Nc1nc(Nc2cc(C)c(N3CCC(N4CCN(C)CC4)CC3)nc2OC)ncc1Cl [Example 58, 2-((5-chloro-2-((2-methoxy-5-methyl-6-(4-(4-methylpiperazin-1-yl)piperidin-1-yl)pyridin-3-yl)amino)pyrimidin-4-yl)amino)-N-methylbenzenesulfonamide] | 0.1 to 0.5 µM | 0.5 to 2 µM | 0.1 to 0.5 µM | 0.1 to 0.5 µM | 0.1 to 0.5 µM | 0.1 to 0.5 µM
16 | CC(=O)Nc1ccc(Cl)cc1Nc1nc(Nc2ccc(N3CCC(N4CCN(C)CC4)CC3)c(F)c2)ncc1Cl [Example 67, N-(4-chloro-2-((5-chloro-2-((3-fluoro-4-(4-(4-methylpiperazin-1-yl)piperidin-1-yl)phenyl)amino)pyrimidin-4-yl)amino)phenyl)acetamide] | 0.1 to 0.5 µM | 0.1 to 0.5 µM | 0.1 to 0.5 µM | 0.025 to 0.1 µM | 2 to 10 µM | 0.025 to 0.1 µM
17 | CC(=O)Nc1ccccc1Nc1nc(Nc2cnc(N3CCC(N4CCN(C)CC4)CC3)c(F)c2)ncc1Cl [Example 70, N-(2-((5-chloro-2-((5-fluoro-6-(4-(4-methylpiperazin-1-yl)piperidin-1-yl)pyridin-3-yl)-amino)pyrimidin-4-yl)amino)phenyl)acetamide] | 0.025 to 0.1 µM | 0.025 to 0.1 µM | 0.1 to 0.5 µM | 0.025 to 0.1 µM | 0.5 to 2 µM | 0.025 to 0.1 µM
18 | COc1cc(N2CCC(N3CCN(C)CC3)CC2)c(C)cc1Nc1ncc(Cl)c(Nc2cc(Cl)ccc2NS(C)(=O)=O)n1 [Example 80, N-(4-chloro-2-((5-chloro-2-((2-methoxy-5-methyl-4-(4-(4-methylpiperazin-1-yl)piperidin-1-yl)phenyl)amino)pyrimidin-4-yl)amino)phenyl)methanesulfonamide] | 0.001 to 0.025 µM | 0.001 to 0.025 µM | 0.1 to 0.5 µM | 0.001 to 0.025 µM | 2 to 10 µM | 0.001 to 0.025 µM
19 | COc1cc(N2CCC(N3CCN(C)CC3)CC2)c(Cl)cc1Nc1ncc(Cl)c(Nc2cc(Cl)ccc2NS(C)(=O)=O)n1 [Example 151, N-(4-chloro-2-((5-chloro-2-((5-chloro-2-methoxy-4-(4-(4-methylpiperazin-1-yl)piperidin-1-yl)phenyl)amino)pyrimidin-4-yl)amino)phenyl)methanesulfonamide] | 0.001 to 0.025 µM | 0.001 to 0.025 µM | 0.1 to 0.5 µM | 0.001 to 0.025 µM |  | 0.001 to 0.025 µM
